# Key:
# Peptide deformylase = molecular target: T1, Peptide deformylase (Pseudomonas aeruginosa (strain ATCC 15692 / PAO1 / 1C / PRS 101 / LMG12228), UniProt Q9I7A8); assay: Inhibition of Pseudomonas aeruginosa Peptide deformylase by fluorescence analysis
# T1 sequence (Q9I7A8 whole entry): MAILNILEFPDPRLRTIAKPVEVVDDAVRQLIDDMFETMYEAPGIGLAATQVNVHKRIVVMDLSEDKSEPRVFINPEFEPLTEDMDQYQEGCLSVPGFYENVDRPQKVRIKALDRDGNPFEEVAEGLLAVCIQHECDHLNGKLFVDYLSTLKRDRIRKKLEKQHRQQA
# Haemophilus influenzae = assay: Antimicrobial activity against Haemophilus influenzae ATCC 51907 after 24 hrs; format: functional; details: ATCC 51907, 24 h
# Streptococcus pneumoniae = assay: Antimicrobial activity against Streptococcus pneumoniae ATCC 6305 after 48 hrs; format: functional; details: ATCC 6305, 48 h
# Moraxella catarrhalis = assay: Antimicrobial activity against Moraxella catarrhalis ATCC 43617 after 48 hrs; format: functional; details: ATCC 43617, 48 h
SMILES,IC50 (Peptide deformylase) [nM],MIC (Haemophilus influenzae) [µg/mL],MIC (Streptococcus pneumoniae) [µg/mL],MIC (Moraxella catarrhalis) [µg/mL]
COc1ccccc1NC(=O)N1CCC[C@H]1C(=O)N(CC(=O)NO)CC1CCCC1,116,200,200,50
CC(C)(C)[C@H](NC(=O)NC1CCCCC1)C(=O)N(CC(=O)NO)CC1CCCC1,55,6.3,6.3,0.1
CC(C)(C)[C@H](NC(=O)Nc1ccccn1)C(=O)N(CC(=O)NO)CC1CCCC1,54,0.8,12.5,0.1
CC(C)(C)[C@H](NC(=O)Nc1cccnc1)C(=O)N(CC(=O)NO)CC1CCCC1,49,3.2,6.3,0.1
COc1ccccc1NC(=O)N[C@H](C(=O)N(CC(=O)NO)CC1CCCC1)C(C)C,13,0.8,0.8,0.1
CC(C)(C)[C@H](NC(=O)N1CCCCC1)C(=O)N(CC(=O)NO)CC1CCCC1,47,12.5,12.5,0.8
COc1ccccc1NC(=O)N[C@H](C(=O)N(CC(=O)NO)CC1CCC1)C(C)(C)C,13,0.4,0.4,0.1
COc1ccccc1NC(=O)N[C@H](C(=O)N(CC(=O)NO)CC1CC1)C(C)(C)C,15,6.3,12.5,1.6
CC[C@@H](C)[C@H](NC(=O)Nc1ccccc1OC)C(=O)N(CC(=O)NO)CC1CCCC1,32,1.6,3.2,0.2
COCCNC(=O)N[C@H](C(=O)N(CC(=O)NO)CC1CCCC1)C(C)(C)C,42,6.3,6.3,0.1
COc1ccccc1NC(=O)N[C@@H](C)C(=O)N(CC(=O)NO)CC1CCCC1,42,12.5,6.3,12.5
CC(C)(C)[C@H](NC(=O)c1ccccc1)C(=O)N(CC(=O)NO)CC1CCCC1,41,3.2,12.5,0.1
CC(C)(C)[C@H](NC(=O)N1CCOCC1)C(=O)N(CC(=O)NO)CC1CCCC1,28,12.5,25,0.2
COc1ccccc1NC(=O)N[C@@H](CC(C)C)C(=O)N(CC(=O)NO)CC1CCCC1,36,3.2,3.2,0.8
CC(C)C(=O)N[C@H](C(=O)N(CC(=O)NO)CC1CCCC1)C(C)(C)C,52,50,100,0.8
COc1ccccc1NC(=O)N[C@H](C(=O)N(CCC(C)C)CC(=O)NO)C(C)(C)C,21,0.8,0.8,0.1
COc1ccccc1C(=O)N[C@H](C(=O)N(CC(=O)NO)CC1CCCC1)C(C)(C)C,11,0.4,50,0.1
COc1ccccc1NC(=O)N[C@H](C(=O)N(CC(=O)NO)CC1CCCC1)C(C)(C)C,29,0.2,0.2,0.1
COc1ccccc1NC(=O)N[C@H](C(=O)N(CCC1CCCC1)CC(=O)NO)C(C)(C)C,31,0.8,0.4,0.1
CN(C(=O)N[C@H](C(=O)N(CC(=O)NO)CC1CCCC1)C(C)(C)C)c1ccccc1,50,25,50,0.4
COc1ccccc1NC(=O)N[C@@H](Cc1ccccc1)C(=O)N(CC(=O)NO)CC1CCCC1,61,25,25,12.5
CC(C)(C)[C@H](NC(=O)Nc1ccccc1)C(=O)N(CC(=O)NO)CC1CCCC1,17,0.4,3.2,0.1
CC(C)(C)[C@H](NC(=O)c1cccs1)C(=O)N(CC(=O)NO)CC1CCCC1,19,1.6,12.5,0.2
CC(C)(C)[C@H](NC(=O)Nc1ccncc1)C(=O)N(CC(=O)NO)CC1CCCC1,65,6.3,25,0.2

# — ChEMBL document CHEMBL1208753, “Peptide deformylase inhibitors with retro-amide scaffold: synthesis and structure-activity relationships” (Bioorg Med Chem Lett, 2010)
